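Values below derive from 48-hour exposures of cells grown in 96-well plates, with endpoints linearly interpolated between the two concentrations bracketing the appropriate inhibition level. At the GI50, growth is halved.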 Activity calls are given as the source filed them. No stated cut-off is given here; in the data, active = GI50 up to about 1.1 µM and inactive = higher.
Tests used:
Assay in all cases: NCI tumour cell line growth inhibition, 48 h
SNB-19 = system: SNB-19
A549 = system: A549
OVCAR-8 = system: OVCAR-8
LOX IMVI = system: LOX IMVI
SK-OV-3 = system: SK-OV-3
SF-539 = system: SF-539
CCRF-CEM = system: CCRF-CEM
HT-29 = system: HT-29
RXF 393 = system: RXF 393
K562 = system: K562
OVCAR-4 = system: OVCAR-4
T47D = system: T47D
MDA-N = system: MDA-N
RPMI-8226 = system: RPMI-8226
SK-MEL-28 = system: SK-MEL-28
IGROV-1 = system: IGROV-1
OVCAR-5 = system: OVCAR-5
CAKI-1 = system: CAKI-1
UACC-257 = system: UACC-257
SR = system: SR

Structure (SMILES) | GI50 (SNB-19) | GI50 (A549) | GI50 (OVCAR-8) | GI50 (LOX IMVI) | GI50 (SK-OV-3) | GI50 (SF-539) | GI50 (CCRF-CEM) | GI50 (HT-29) | GI50 (RXF 393) | GI50 (K562) | GI50 (OVCAR-4) | GI50 (T47D) | GI50 (MDA-N) | GI50 (RPMI-8226) | GI50 (SK-MEL-28) | GI50 (IGROV-1) | GI50 (OVCAR-5) | GI50 (CAKI-1) | GI50 (UACC-257) | GI50 (SR)
O=C(O)/C(=C\c1ccccc1)Cc1ccccc1 | > 100 µM (inactive) | > 100 µM (inactive) | > 100 µM (inactive) | > 100 µM (inactive) | > 100 µM (inactive) | 83 µM (inactive) | > 100 µM (inactive) | > 100 µM (inactive) | > 100 µM (inactive) | > 100 µM (inactive) | > 100 µM (inactive) | > 100 µM (inactive) | > 100 µM (inactive) | > 100 µM (inactive) | > 100 µM (inactive) | > 100 µM (inactive) | > 100 µM (inactive) | > 100 µM (inactive) | > 100 µM (inactive) | 
CC(C)(C)OC(=O)N1CCC(C(=O)O)CC1 | > 100 µM (inactive) | > 100 µM (inactive) | > 100 µM (inactive) | > 100 µM (inactive) |  | > 100 µM (inactive) | > 100 µM (inactive) | > 100 µM (inactive) |  |  | > 100 µM (inactive) | > 100 µM (inactive) | > 100 µM (inactive) | > 100 µM (inactive) | > 100 µM (inactive) | > 100 µM (inactive) | > 100 µM (inactive) | > 100 µM (inactive) | > 100 µM (inactive) | > 100 µM (inactive)
COc1cc(C(=O)N(C(=O)N2CCCCC2)c2ccccc2)cc(OC)c1OC | > 100 µM (inactive) | > 100 µM (inactive) | > 100 µM (inactive) | > 100 µM (inactive) | > 100 µM (inactive) | > 100 µM (inactive) | > 100 µM (inactive) |  |  | > 100 µM (inactive) |  | > 100 µM (inactive) | > 100 µM (inactive) | 89.1 µM (inactive) | > 100 µM (inactive) | > 100 µM (inactive) | > 100 µM (inactive) | > 100 µM (inactive) | > 100 µM (inactive) | > 100 µM (inactive)
Nc1c(Br)cc(-c2nc3ccccc3s2)cc1Br | > 100 µM (inactive) | > 100 µM (inactive) | > 100 µM (inactive) |  | > 100 µM (inactive) | > 100 µM (inactive) | > 100 µM (inactive) | > 100 µM (inactive) | > 100 µM (inactive) | > 100 µM (inactive) |  | > 100 µM (inactive) | > 100 µM (inactive) |  | > 100 µM (inactive) | 5.12 µM (inactive) | > 100 µM (inactive) | > 100 µM (inactive) | > 100 µM (inactive) | > 100 µM (inactive)
O=C(O)/C=C\C(=O)Nn1c(Cc2ccc(Cl)cc2)n[nH]c1=O |  | > 100 µM (inactive) | > 100 µM (inactive) |  | > 100 µM (inactive) | > 100 µM (inactive) | > 100 µM (inactive) | > 100 µM (inactive) | > 100 µM (inactive) | > 100 µM (inactive) | > 100 µM (inactive) | > 100 µM (inactive) | > 100 µM (inactive) |  |  | > 100 µM (inactive) | > 100 µM (inactive) | > 100 µM (inactive) | > 100 µM (inactive) | > 100 µM (inactive)
COc1cc(OC)c(C2c3cc4c(cc3OC(N3CCOCC3)C2C)OCO4)c(OC)c1 (stereo unspecified) | 28.7 µM (inactive) | 45.9 µM (inactive) | 43.6 µM (inactive) | 23.2 µM (inactive) |  | 12.3 µM (inactive) | 33.8 µM (inactive) | 21.9 µM (inactive) |  | 40.8 µM (inactive) |  | 17.7 µM (inactive) | 72.6 µM (inactive) | 20.2 µM (inactive) | > 100 µM (inactive) | 22.1 µM (inactive) | 65.5 µM (inactive) |  | 78.7 µM (inactive) | 18 µM (inactive)
COC(=O)C(Cc1ccc(Oc2cc(CC(NC(=O)c3ccccc3)C(=O)OC)ccc2OC)cc1)NC(=O)c1ccccc1 (stereo unspecified) | 35.5 µM (inactive) | 25.7 µM (inactive) | 10.7 µM (inactive) | 8.26 µM (inactive) | > 84.9 µM (inactive) | 30.1 µM (inactive) |  | 26.6 µM (inactive) | 14.7 µM (inactive) | 2.01 µM (inactive) | 26.4 µM (inactive) | 6.04 µM (inactive) | 14.2 µM (inactive) | 3.03 µM (inactive) | 8.49 µM (inactive) | 6.3 µM (inactive) | > 100 µM (inactive) | 54.8 µM (inactive) | 7.35 µM (inactive) | 
CCOC(=O)/C=C(/C(=O)OCC)n1c(=O)c(C)cn(C2CC(N=[N+]=[N-])C(CO)O2)c1=O (stereo unspecified) | > 100 µM (inactive) | 33.9 µM (inactive) | 28.9 µM (inactive) | 27.5 µM (inactive) | > 100 µM (inactive) | 22.1 µM (inactive) |  | 35.7 µM (inactive) | 24.2 µM (inactive) | 1.86 µM (inactive) | 32.6 µM (inactive) | 27.2 µM (inactive) | 43 µM (inactive) | 17.4 µM (inactive) | 29.4 µM (inactive) | 37.3 µM (inactive) | > 100 µM (inactive) | 31.6 µM (inactive) | 22.1 µM (inactive) | 
COc1ccc(-n2cnc3c(NC(C)(C)C(=O)O)ncnc32)cc1 | > 100 µM (inactive) | > 100 µM (inactive) | > 100 µM (inactive) | > 100 µM (inactive) | > 100 µM (inactive) |  | > 100 µM (inactive) | > 100 µM (inactive) |  | > 100 µM (inactive) | > 100 µM (inactive) | > 100 µM (inactive) | > 100 µM (inactive) | > 100 µM (inactive) | > 100 µM (inactive) | > 100 µM (inactive) | > 100 µM (inactive) | > 100 µM (inactive) | > 100 µM (inactive) | > 100 µM (inactive)
CC(=O)c1sc2c(c1O)c(=O)n(-c1ccccc1)c(=S)n2-c1ccccc1 | > 100 µM (inactive) | > 100 µM (inactive) | > 100 µM (inactive) | > 100 µM (inactive) |  |  | > 10 µM (inactive) | > 100 µM (inactive) | > 100 µM (inactive) | > 100 µM (inactive) | > 100 µM (inactive) | > 100 µM (inactive) | > 100 µM (inactive) | > 100 µM (inactive) | > 100 µM (inactive) | > 100 µM (inactive) | > 100 µM (inactive) |  | > 100 µM (inactive) | 
CSCCCS/C1=C/CCCCCCCCCC1 | > 100 µM (inactive) | > 100 µM (inactive) |  | > 100 µM (inactive) | > 100 µM (inactive) | > 100 µM (inactive) |  | > 100 µM (inactive) | > 100 µM (inactive) | > 100 µM (inactive) | > 100 µM (inactive) | > 100 µM (inactive) | > 100 µM (inactive) | > 100 µM (inactive) | > 100 µM (inactive) | > 100 µM (inactive) | > 100 µM (inactive) | > 100 µM (inactive) | > 100 µM (inactive) | > 100 µM (inactive)
CC(C)(Oc1ccc(Cl)cc1)C(=O)N(C(=O)N1CCN(c2ccccc2)CC1)c1ccccc1 | > 100 µM (inactive) | 7.46 µM (inactive) | > 100 µM (inactive) | > 100 µM (inactive) | > 100 µM (inactive) | 34.4 µM (inactive) | 7.1 µM (inactive) | 6.25 µM (inactive) | > 100 µM (inactive) | 3.96 µM (inactive) | 8.49 µM (inactive) | 5.48 µM (inactive) | 62.8 µM (inactive) |  | > 100 µM (inactive) |  | > 100 µM (inactive) | 7.87 µM (inactive) | 5.62 µM (inactive) | 3.76 µM (inactive)
O=C(CCc1ccccc1)On1c(-c2ccccc2)nc2ccccc2c1=S | 14.8 µM (inactive) | 3.65 µM (inactive) | 4.44 µM (inactive) | 0.456 µM (active) | 6.84 µM (inactive) | 3.92 µM (inactive) | 1.77 µM (inactive) | 3.85 µM (inactive) | 18.6 µM (inactive) | 4.6 µM (inactive) | 2.9 µM (inactive) | 6.79 µM (inactive) | 12.9 µM (inactive) | 7.28 µM (inactive) | 16.1 µM (inactive) | 0.515 µM (active) | 18.9 µM (inactive) | 5.68 µM (inactive) | 22.9 µM (inactive) | 
CCOC(=O)CCC(NC(=O)C(CCC(=O)OCC)NC(=O)C(Cc1ccc([N+](=O)[O-])cc1)NC(C)=O)C(=O)NNC(=O)OC(C)(C)C (stereo unspecified) | > 100 µM (inactive) | > 100 µM (inactive) | > 100 µM (inactive) |  |  |  |  | > 100 µM (inactive) | 14 µM (inactive) | > 100 µM (inactive) |  | 37.3 µM (inactive) | > 100 µM (inactive) | > 100 µM (inactive) | > 100 µM (inactive) | > 100 µM (inactive) | > 100 µM (inactive) |  | > 100 µM (inactive) | 
NC1CC(N)c2c(Br)sc(Br)c21 (stereo unspecified) |  | 97.7 µM (inactive) | 55.6 µM (inactive) | 58.1 µM (inactive) | > 100 µM (inactive) | > 100 µM (inactive) | > 100 µM (inactive) | > 100 µM (inactive) |  | > 100 µM (inactive) | > 100 µM (inactive) | 54 µM (inactive) | > 100 µM (inactive) |  | > 100 µM (inactive) | 39.1 µM (inactive) | > 100 µM (inactive) | > 100 µM (inactive) | > 100 µM (inactive) | 59.4 µM (inactive)
C=C1C(=O)O[C@@H]2C[C@@H](C)[C@@H]3C=CC(=O)[C@@]3(C)[C@@H](O)[C@H]12 [HELENALIN] | 2.58 µM (inactive) | 2.9 µM (inactive) | 1.48 µM (inactive) | 0.574 µM (active) |  | 1.99 µM (inactive) | 0.313 µM (active) | 1.71 µM (inactive) | 0.466 µM (active) | 0.622 µM (active) | 2.77 µM (inactive) | 2.95 µM (inactive) | 2.08 µM (inactive) | 0.532 µM (active) | 1.76 µM (inactive) | 2.2 µM (inactive) | 1.71 µM (inactive) | 0.377 µM (active) | 1.59 µM (inactive) | 0.594 µM (active)

Reference: ChEMBL document CHEMBL1201862, “PubChem BioAssay data set” (2004)
